Reference: patent US20220133702A1, “CYSTIC FIBROSIS TRANSMEMBRANE CONDUCTANCE REGULATOR MODULATORS FOR TREATING AUTOSOMAL DOMINANT POLYCYSTIC KIDNEY DISEASE” (The Johns Hopkins University, priority 2020, published 2022)

What was measured:
Assay type in all cases: cell-based, mouse
[1] = test system: adenylyl cyclase (AC) 6 and AC3 in PN cells; assay: Western blot of adenylyl cyclase expression; conditions: PN cells treated with VX-809
Description: FIG. 4A, FIG. 4B, FIG. 4C, FIG. 4D, and FIG. 4E show (FIG. 4A-FIG. 4B) cAMP levels are reduced by VX-809. (FIG. 4A) cAMP levels in mouse tissue were reduced by VX-809. The kidney samples (n=6) analyzed were taken from those depicted in FIG. 1. (FIG. 4B) Confluent PN and PH cells were treated with VX-809 (10 μM) or DMSO for 16 hand then treated with forskolin (100 μM) for 30 min before the cells were harvested for the assay. Columns represent means±SEM. Statistical analysis was performed using a two-tailed Student's t-test. Each set of data is from three individual wells; Note that resting cAMP is greater in PN vs PH cells as previously shown (25). Also note that forskolin caused a large increase in cAMP. A smaller increase occurred with IBMX. However, the increase induced by forskolin alone was similar to that by IBMX plus forskolin. […] (FIG. 4C, FIG. 4D, and FIG. 4E) Adenylyl cyclase expression. (FIG. 4C) Western blot showing the expression of adenylyl cyclase (AC) 6 and AC3 in treated and control PN cells. (FIG. 4D-FIG. 4E) Columns represent means±SEM of the AC3 and AC6 expression. The data were analyzed by non-parametric t-test. The experiment was repeated four times. For all graphs, *P<0.05, **P<0.01, and ***P<0.001;
There are two classes of adenylyl cyclases that are regulated by intracellular Ca^2+: one class is activated, and the other inhibited. […]

[2] = test system: intracellular Ca^2+ in PN cells; assay: Fura-2 Ca2+ imaging assay; conditions: 10 μM, 16 h
Description: FIG. 5A, FIG. 5B, FIG. 5C, FIG. 5D, FIG. 5E, and FIG. 5F show intracellular Ca^2+ (F340/F380) levels obtained by ratiometric Fura-2 AM analysis of PN cells treated with VX-809 (10 μM) for 16 h. (FIG. 5A) Representative traces of intracellular Ca^2+ release in response to ATP (100 μM) in PN cells and cells treated with VX-809 (10 μM). (FIG. 5B, FIG. 5C) Graphs summarizing resting calcium levels (FIG. 5B) and the average amplitude of Ca^2+ release (FIG. 5C) in response to ATP. (FIG. 5D) Representative traces of ER Ca^2+ release in response to thapsigargin (4 μM) in PN cells treated with VX-809. (FIG. 5E, FIG. 5F) Resting calcium levels (FIG. 5E) and the average amplitude of Ca^2+ release (FIG. 5F) in response to thapsigargin. Amplitude was measured as the […] of the signal base to peak Δf/f. Significance between the two groups was analyzed using Student's t-test, n=4-5). *P<0.05, ***P<0.001.
Ca^2+-dependent signal transduction is associated with cyst formation. […] To address the effect of VX-809 on this Ca^2+ release, the cells were treated with thapsigargin, a specific inhibitor of the ER Ca^2+-ATPase which, when applied, allows Ca^2+ to leak out of the ER through independent Ca^2+-permeable pathways. A small effect of VX-809 on resting Ca^2+ was observed.
Fura-2 Ca^2+ imaging assay. On Day 5 of cell culture, the cells were loaded with the cell-permeant acetoxymethyl (AM) ester of the calcium indicator fura-2 (fura-2/AM) at 37° C. for 90 min. Measurements were made on a Zeiss inverted microscope equipped with a Sutter Lambda 10-2 controller and filter wheel assembly. For ATP stimulation experiments, the cells were exposed to 100 μM ATP diluted in the imaging buffer. A Zeiss FluorArc mercury lamp was used to excite the cells at 340 and 380 nm, and the emission response was measured at 510 nm Cell fluorescence was measured in response to excitation for 1000 ms at 340 nm and 200 ms at 380 nm once every 4 s. Image acquisition, image analysis, and filter wheel control were performed with IPLab software.

[3] = test system: NHE3 in PN cells; assay: NHE3 expression; conditions: treated PN cells vs PN cells
Description: FIG. 14A and FIG. 14B show NHE3 expression in PN cells treated with VX-809.
The expression and activity of […] were evaluated. Specifically, NHE3 expression was evaluated in PN cells that were treated with VX-809. […] was also studied in PN, PH, and PN cells treated with VX-809. […] Next, NHE3 activity was evaluated in PN/PH cells or PN cells treated with VX-809. NHE3 activity was increased in PN cells treated with VX-809, as compared to PN cells (FIG. 16A). NHE3 activity was higher in control PH cells than in PN cells (FIG. 16B). […] NHE3 activity was increased in both VX-809 treated PN cells and control PH cells, as compared to control PN cells (FIG. 16C).

Cc1ccc(NC(=O)C2(c3ccc4c(c3)OC(F)(F)O4)CC2)nc1-c1cccc(C(=O)O)c1 [VX-809, lumacaftor]
AC3 levels [1]: decreased
AC6 regulation [1]: Regulates AC3 but not AC6
intracellular Ca^2+ movement in response to ATP ([2]; ATP 100 μM): no effect
resting Ca^2+ ([2]; ATP experiment): small reduction
thapsigargin-induced release of Ca^2+ from the ER ([2]; thapsigargin 4 μM): dramatically reduced
resting Ca^2+ ([2]; thapsigargin experiment): small effect
NHE3 expression [3]: significantly increased
